Values after ≈ are worked out from the molar mass of the structure shown. Values joined by “and” are separate entries in the source; they are usually repeats but may differ in a detail not shown here. Equal values may be shown once. Read-outs that look alike come from different tables or passages of the source.
Tests used:
herpes viruses = test: Antiherpetic activity, overall; assay type: cell-based; conditions: in words
[1] = Cytotoxicity in host cells / stationary cells (HFF); assay type: cell-based, human; conditions: human, hff cells
Description: (§1) ^d CC50 = cytotoxic concentration in μg/mL that produces 50%

[2] = Cytotoxicity in growing (rapidly dividing) HFF; assay type: cell-based, human; conditions: human, growing hff cells
[3] = tested on: HSV-1 (herpes simplex type 1); test: microbe, parasite or virus in culture
Description: (§2) Compounds 25 and 26 are (S)-methanocarba-T and (±)-(carba-T), respectively. (±)-carba-T was kindly provided by Dr. Y. Fulmer Shealy, Southern Research Institute, Birmingham, Ala. [drawing 5]

[4] = tested on: HSV-2 (herpes simplex type 2); test: microbe, parasite or virus in culture
Description: as §2

[5] = tested on: HCMV (human cytomegalovirus); test: microbe, parasite or virus in culture; assay type: cell-based; conditions: for EC50: Human betaherpesvirus 5, Table 5, HCMV, read-out: EC50
[6] = tested on: HCMV (human cytomegalovirus); test: microbe, parasite or virus in culture; assay type: cell-based
Description: | ^f plaque reduction assay.

[7] = tested on: HFF (human foreskin fibroblasts); test: Cytotoxicity in host cells / stationary cells (HFF); assay type: cell-based; conditions: Table 5; host cell not given
Description: as §1

EBV (Epstein-Barr virus) = test: microbe, parasite or virus in culture; assay type: cell-based; conditions: human gammaherpesvirus 4, EBV
Description: as §2

[8] = Human alphaherpesvirus 1, Table 5, HSV-1
[9] = Human alphaherpesvirus 2, Table 5, HSV-2

EC50 [5]	EC50 [3, 8]	EC50 [4, 9]	SMILES	SI (CC50/EC50) [3]	SI (CC50/EC50) [4]	SI (CC50/EC50) [5]	CC50 ([1]; Table 5, host cell not given)	further results
6.4 µg/mL (≈ 24.5 µM)	> 100 µg/mL	> 100 µg/mL	Nc1ncnc2c1ncn2[C@@]12C[C@H](O)[C@@H](CO)[C@@H]1C2 [(S)-DMC-A, reference compound]	1	1	> 15.6	> 100 µg/mL	activity against HCMV ([5]; in words): active against HCMV; EC50 ([6]; Human betaherpesvirus 5, Table 5, HCMV, plaque reduction assay, read-out: EC50): 2.4 µg/mL (≈ 9.19 µM); SI (CC50/EC50) ([6]; human foreskin fibroblasts): > 41.7
> 20 µg/mL	> 20 µg/mL	> 20 µg/mL	Nc1nc2c(ncn2[C@@]23C[C@H](O)[C@@H](CO)[C@@H]2C3)c(=O)[nH]1 [(S)-DMC-G, reference compound]	< 3.7	< 3.7	< 2.3		

More lines, now with the values behind:

SMILES	EC50 [5]	EC50 [3, 8]	EC50 [4, 9]	SI (CC50/EC50) [3]	SI (CC50/EC50) [4]	SI (CC50/EC50) [5]	CC50 ([1]; Table 5, host cell not given)	further results
Cc1cn([C@@H]2C[C@H](CO)[C@@H](O)C2)c(=O)[nH]c1=O (relative stereo) [Compound 26, (±)-(carba-T), reference compound]				1	1			antiherpetic activity (herpes viruses): did not exhibit antiherpetic activity; CC50 ([1]; Table 4, HSV-1 and HSV-2 lines, host cell not given): > 10 µg/mL; CC50 ([1]; stationary cells): > 100 µg/mL; CC50 ([2]; rapidly dividing cells, read-out: CC50): 0.65 µg/mL (≈ 2.71 µM); EC50 ([3]; Human alphaherpesvirus 1, Table 4, HSV-1, plaques reduced by 50%): > 10 µg/mL; EC50 ([4]; Human alphaherpesvirus 2, Table 4, HSV-2, plaques reduced by 50%): > 10 µg/mL
Nc1ccn([C@@]23C[C@H](O)[C@@H](CO)[C@@H]2C3)c(=O)n1 [(S)-DMC-C, reference compound]	88.9 µg/mL (≈ 375 µM)	> 4 µg/mL	> 4 µg/mL	< 3.7	< 3.7	> 1.1		
O=c1ccn([C@@]23C[C@H](O)[C@@H](CO)[C@@H]2C3)c(=O)[nH]1 [(S)-DMC-U, reference compound]	> 100 µg/mL	> 20 µg/mL	> 20 µg/mL	< 3.0	< 3.0	1	59.1 µg/mL (≈ 248 µM)	CC50 [7]: > 100 µg/mL
Nc1nc2c(ncn2COCCO)c(=O)[nH]1 [ACV, acyclovir, reference compound]								CC50 ([2]; Table 3, no virus, Growing HFF, positive control, read-out: Positive Control EC50 (line Growing HFF)): 40 µg/mL (≈ 178 µM); EC50 (EBV (Epstein-Barr virus); Table 3, Daudi, positive control, read-out: Positive Control EC50): 0.1 µg/mL (≈ 0.444 µM); EC50 (EBV (Epstein-Barr virus); Table 4, acyclovir control, read-out: ACV (EC50)): 0.1 µg/mL (≈ 0.444 µM); EC50 ([3]; Human alphaherpesvirus 1, read-out: ACV (EC50), Table 4, HSV-1, acyclovir control): 0.3 µg/mL (≈ 1.33 µM); EC50 ([3]; Human alphaherpesvirus 1, read-out: Positive Control EC50, Table 3, HSV-1, HFF, positive control): 0.8 µg/mL (≈ 3.55 µM); ACV (EC50) ([3]; Table 4, HSV-1, acyclovir control): 0.15 µg/mL; Control EC50 ([3]; Table 5, HSV-1, control): 0.20 µg/mL; EC50 ([4]; Human alphaherpesvirus 2, read-out: ACV (EC50), Table 4, HSV-2, acyclovir control): 0.8 µg/mL (≈ 3.55 µM); EC50 ([4]; Human alphaherpesvirus 2, read-out: Positive Control EC50, Table 3, HSV-2, HFF, positive control): 4 µg/mL (≈ 17.8 µM); ACV (EC50) ([4]; Table 4, HSV-2, acyclovir control): 0.60 µg/mL; Control EC50 ([4]; Table 5, HSV-2, control): 1.8 µg/mL and 1.5 µg/mL
